Data set [1] deals with T1, 5-hydroxytryptamine receptor 1F (Homo sapiens, UniProt P30939).
T1 sequence (P30939 whole entry): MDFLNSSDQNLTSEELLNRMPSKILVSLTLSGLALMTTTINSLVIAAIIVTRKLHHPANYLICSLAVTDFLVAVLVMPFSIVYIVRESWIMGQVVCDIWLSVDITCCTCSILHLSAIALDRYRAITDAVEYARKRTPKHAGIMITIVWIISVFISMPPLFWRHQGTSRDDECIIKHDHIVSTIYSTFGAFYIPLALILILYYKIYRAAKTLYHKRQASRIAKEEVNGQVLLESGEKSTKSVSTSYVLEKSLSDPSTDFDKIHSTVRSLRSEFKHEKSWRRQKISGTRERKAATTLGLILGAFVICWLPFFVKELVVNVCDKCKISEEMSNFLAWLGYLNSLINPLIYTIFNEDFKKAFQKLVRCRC
The data set can be described thus: Agonist activity at 5HT1F receptor (unknown origin) expressed in HEK293 cells measured after 60 mins by Fluo-4AM dye based FLIPR assay. The format is functional, cell-based. The conditions noted are these: read-out: IC50 (the source's name).

The nature of data set [2]: Cmax in Sprague-Dawley rat at 1 mg/kg, iv measured for 24 hrs by LC-MS/MS analysis. The note with it: in vivo. Type of data set: ADME, organism-based. The arrangement: route intravenous, dose 1 mg/kg, time 24 hrs.
Data set [3] in a line: Cmax in Sprague-Dawley rat at 5 mg/kg, ig measured for 24 hrs by LC-MS/MS analysis. The note with it: in vivo, po. Type of data set: ADME, organism-based. The arrangement: route intragastric, time 24 hrs, dose 5 mg/kg.
Data set [4] can be described thus: AUC(0 to t) in Sprague-Dawley rat at 1 mg/kg, iv measured for 24 hrs by LC-MS/MS analysis. Type of data set: ADME, organism-based. The arrangement: time 24 hrs, dose 1 mg/kg. The conditions noted are these: in vivo.
Data set [5] in a line: AUC(0 to t) in Sprague-Dawley rat at 5 mg/kg, ig measured for 24 hrs by LC-MS/MS analysis. The format is ADME, organism-based. The arrangement: time 24 hrs, dose 5 mg/kg. The note with it: in vivo, po.
The nature of data set [6]: Half life in Sprague-Dawley rat at 1 mg/kg, iv measured for 24 hrs by LC-MS/MS analysis. The format is ADME, organism-based. The conditions noted are these: in vivo.
The nature of data set [7]: Half life in Sprague-Dawley rat at 5 mg/kg, ig measured for 24 hrs by LC-MS/MS analysis. Type of data set: ADME, organism-based. The note with it: in vivo, po.
Data set [8] is described as follows: Volume of distribution at steady state in Sprague-Dawley rat at 1 mg/kg, iv measured for 24 hrs by LC-MS/MS analysis. Type of data set: ADME, organism-based. The conditions noted are these: in vivo, read-out: Vdss.
Data set [9] is described as follows: Clearance in Sprague-Dawley rat at 1 mg/kg, iv measured for 24 hrs by LC-MS/MS analysis. Type of data set: ADME, organism-based. The note with it: in vivo.
Data set [10] is described as follows: Bioavailability in Sprague-Dawley rat at 5 mg/kg, ig measured for 24 hrs by LC-MS/MS analysis. Type of data set: ADME, organism-based. The note with it: in vivo, po.
Data set [11] deals with T2, 5-hydroxytryptamine receptor 1F (Homo sapiens) (UniProt P30939).
T2 sequence (whole entry): T1 sequence (P30939 whole entry)
Description: Potency index, ratio of lasmiditan EC50 to test compound EC50 for agonist activity at 5HT1F receptor (unknown origin) expressed in HEK293 cells measured after 60 mins by Fluo-4AM dye based FLIPR assay. Type of data set: functional, cell-based.

Data set [12] concerns Rattus norvegicus. Description: Antimigraine activity against electrical stimulation of trigeminal ganglion migraine Wistar rat model assessed as reduction in c-Fos-positive cells at 10 ug/kg, po measured after 60 mins by confocal fluorescence microscopic analysis. Type of data set: functional, organism-based. The note with it: dose 10.0 µg/kg.
Data set [13] has as its system Rattus norvegicus. Description: Antimigraine activity against electrical stimulation of trigeminal ganglion migraine Wistar rat model assessed as reduction in dural plasma protein extravasation at 0.01 ug/kg, po measured after 45 mins by confocal fluorescence microscopic analysis. The note with it: dose 0.01 µg/kg. Type of data set: functional, organism-based.
A short description of data set [14]: Toxicity in NewZealand rabbit Saphenous vein rings assessed as induction of vasoconstriction at 0.01 to 100 uM. The format is tissue-based, Oryctolagus cuniculus. The conditions noted are these: dose 0.01-100 µM.
Data set [15] is described as follows: Toxicity in NewZealand rabbit Saphenous vein rings assessed as induction of vasoconstriction at 1 to 100 uM. Type of data set: tissue-based, Oryctolagus cuniculus. The conditions noted are these: dose 1-100 µM.

Each structure is given as a SMILES string. Activity calls are given as the source filed them. No cut-off for these calls is given here.

What is called Cmax is the highest concentration seen after dosing. By AUC(0-t) is commonly meant exposure summed from dosing to a finite time, without extrapolation to infinity. Lower therefore signals less exposure. Broadly, the half-life is the time in which the quantity being followed falls by half. The low end stands for rapid decline, the high end for slow decline. As usually defined, the clearance is the volume of plasma or blood freed of the substance per unit of time. In general, bioavailability refers to the share of a dose that reaches the circulation, judged against a reference dose that is usually intravenous. Higher therefore signals good availability. Consider `CN1CCC(=C(F)c2cccc(NC(=O)c3ccc(F)cn3)n2)CC1`, for which the EC50 in data set [1] came out at 24.3 nM. For the same molecule, the results for the Cmax in data set [2] and in data set [3] were 94.9 ng/mL and 34.7 ng/mL, respectively. Besides, the AUC(0-t) at 24 h in data set [4] stood at 103 ng·h/mL; in [5] it was 121 ng·h/mL. The half-life in data set [6] was 0.924 h; in data set [7], 1.24 h. In addition, in [8], the Vd amounted to 11 L/kg. The molecule also had a clearance in data set [9] of 159 mL/min/kg. For the same molecule, the bioavailability in data set [10] was determined as 23.7%.

Regarding `CN1CCC(=C(F)c2cccc(NC(=O)c3ccc(Cl)cn3)n2)CC1`, the EC50 in data set [1] was 161 nM.

In the case of `O=C(Nc1cccc(C(F)=C2CCN(C(F)F)CC2)n1)c1c(F)cc(F)cc1F`, the EC50 in data set [1] is 813 nM.

`O=C(Nc1cccc(C(F)=C2CCN(C(F)(F)F)CC2)n1)c1c(F)cc(F)cc1F`: the EC50 in [1] was greater than 10000 nM.

On to `CN1CCC(=C(F)c2cccc(NC(=O)c3ccc(Cl)cc3)n2)CC1`, for which, in data set [1], the EC50 was 29.3 nM. Further, the Cmax in [2] stood at 61 ng/mL; in data set [3], 35.7 ng/mL. In addition, the AUC(0-t) at 24 h turned out to be 89.4 ng·h/mL in data set [4] and 151 ng·h/mL in data set [5]. For the same molecule, the half-life in data set [6] is 1.6 h; in data set [7] it was 2.41 h. The Vd in data set [8] came out at 20.3 L/kg. For the same molecule, in data set [9], the clearance was found to be 180 mL/min/kg. The bioavailability in data set [10] was found to be 39%. Moreover, the Ratio EC50 in data set [11] amounted to 3.

In the case of `CN1CCC(C(=O)c2cccc(NC(=O)c3c(F)cc(F)cc3F)n2)CC1` [LASMIDITAN], the maximum concentration (Cmax) turned out to be 28.1 ng/mL in data set [2] and 90.9 ng/mL in data set [3]. Besides, the values for the AUC(0-t) at 24 h in [4] and in data set [5] were 105 ng·h/mL and 386 ng·h/mL, respectively. Besides, the half-life was 3.12 h in [6] and 3.38 h in data set [7]. For the same molecule, in [8], the Vd came out at 32.2 L/kg. The molecule further registered a clearance in [9] of 127 mL/min/kg. Also, in data set [10], the bioavailability was 63.2%. In addition, the result in data set [12] and in data set [13] was Active. Besides, the Activity entry in data set [14] is “Non-Toxic”.

In the case of `CN1CCC(=C(F)c2cccc(NC(=O)c3ccc(F)cc3F)n2)CC1`, the EC50 in data set [1] worked out at 4.67 nM. Besides, the values for the Cmax in data set [2] and in data set [3] were 74.4 ng/mL and 9.71 ng/mL, respectively. The results for the area under the curve AUC(0-t) at 24 h in data set [4] and in data set [5] were 70.4 ng·h/mL and 44.6 ng·h/mL, respectively. Further, the half-life is 1.05 h in data set [6] and 0.824 h in data set [7]. The Vd in data set [8] was determined as 17.7 L/kg. This molecule came in with a clearance in data set [9] of 229 mL/min/kg. In data set [10], this molecule yielded a bioavailability of 12.9%. Moreover, in data set [11], the Ratio EC50 stood at 3.

Consider `CN1CCC(=C(F)c2cccc(NC(=O)c3ccc(Cl)cc3F)n2)CC1`, for which the EC50 in data set [1] was 23.4 nM. Also, the highest concentration (Cmax) in data set [2] amounted to 72.2 ng/mL; in data set [3], 23.2 ng/mL. For the same molecule, the AUC(0-t) at 24 h was 90.5 ng·h/mL in data set [4] and 105 ng·h/mL in data set [5]. The half-life was 1.42 h in data set [6] and 1.68 h in data set [7]. For the same molecule, in data set [8], the Vd was 20.1 L/kg. Also, the clearance in [9] turned out to be 178 mL/min/kg. In addition, in data set [10], the bioavailability came to 26.2%. The Ratio EC50 in data set [11] is 3.

`O=C(Nc1cccc(C(F)=C2CCN(C3CC3)CC2)n1)c1c(F)cc(F)cc1F`: the EC50 in data set [1] was found to be 570 nM.

As for `CN1CCC(=C(F)c2cccc(NC(=O)c3ccc(F)cc3)n2)CC1`, the EC50 in [1] amounted to 6.36 nM. The highest concentration (Cmax) in data set [2] was found to be 75.3 ng/mL; in data set [3] it was 34.1 ng/mL. Besides, the figures for the area under the curve AUC(0-t) at 24 h in [4] and in [5] were 104 ng·h/mL and 157 ng·h/mL, respectively. Further, the half-life in data set [6] is 1.37 h; in [7] it was 1.41 h. Also, the Vd in data set [8] stood at 17.3 L/kg. This molecule had a clearance in [9] of 156 mL/min/kg. Further, the bioavailability in [10] turned out to be 32.5%. Further, the Ratio EC50 in [11] stood at 3.

As for `CCN1CCC(=C(F)c2cccc(NC(=O)c3c(F)cc(F)cc3F)n2)CC1`, the EC50 in data set [1] stood at 178 nM.

Consider `CNS(=O)(=O)Cc1ccc2[nH]cc(CCN(C)C)c2c1` [SUMATRIPTAN], for which the Activity result in data set [15] is “Toxic”.

The values above are taken from ChEMBL document CHEMBL4828744, “Design, synthesis and biological evaluation of pyridinylmethylenepiperidine derivatives as potent 5-HT1F receptor agonists for migraine therapy” (Eur J Med Chem, 2021).
